Literature values as cited in paper PMC9332470, “Production and Selection of Antibody–Antigen Pairs for the Development of Immunoenzyme Assay and Lateral Flow Immunoassay Methods for Carbofuran and Its Analogues” (Biosensors, 2022).

Experiments:
[1] = test system: specific antibody against carbofuran; conditions: double-label time-resolved fluorescent strip; cited from earlier work
[2] = test system: sol–gel-entrapped antibody; conditions: label-free electrochemical immunosensor; cited from earlier work

## CNC(=O)Oc1cccc2c1OC(C)(C)C2 [carbofuran]
[1]
  detection limit: 0.76 ng/mL
[2]
  detection limit: 0.33 ng/mL
